In US6706663B2, “Herbicidal 3-heterocyclic substituted benzisothiazole and benzisoxazole compounds” (Wyeth, priority 2000, dated 2004):

Tests used:
[1] = test system: ECHCG (Echinochloa crus-galli); assay: Preemergence herbicidal evaluation; format: in vivo, (L.) Beau; settings: Rate 0.2500 kg/ha; preemergence; rated 4-5 weeks after treatment
Summary of the method: (§1)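 Visual 0-9 rating versus untreated control, taken four to five weeks post-treatment, scoring stand, vigor, malformation, size, chlorosis and overall appearance. Compound applied as aqueous acetone spray to freshly seeded soil cups, then kept under standard greenhouse care.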

SETVI (Setaria viridis) [2] = assay: Preemergence herbicidal evaluation; format: in vivo, (L.) Beau; settings: Rate 0.2500 kg/ha; preemergence; rated 4-5 weeks after treatment
Summary of the method: as §1

[3] = test system: CYPSE (Cyperus serotinus); assay: Flooded paddy, preemergence weed control; format: in vivo, Rottb.; settings: rate 0.1250 kg/ha, rated 3-4 weeks after treatment, 0-9 rating scale
Method: Results of herbicide evaluation are expressed on a rating scale (0-9). The scale is based upon a visual observation of plant stand, vigor, malformation, size, chlorosis and overall plant appearance as compared with a control.
Preemergence herbicidal activity under flooded paddy conditions is determined as follows: plant seeds or propagating organs are planted in the top 0.5 cm of silt loam soil in 32 oz. plastic containers with a diameter of 10.5 cm and no drainage holes. Water is added to these containers and maintained at 1.5 to 3 cm above the soil surface for the duration of the experiment. The test compounds are applied as aqueous/acetone mixtures 50/50 v/v pipetted directly into the flood water to give the equivalent of about 0.0080 to 0.1250 kg/ha of active ingredient. The treated containers are placed on greenhouse benches and cared for in accordance with conventional greenhouse procedures. Three to four weeks after treatment, the test is terminated and each container is examined and herbicidal effect rated according to the rating system provided in Example 87.

[4] = test system: TRZAWR (Wheat, Winter, cv Riband); assay: Postemergence herbicidal evaluation; format: in vivo, Triticum aestivum; settings: rate 0.0620 kg/ha
Summary of the method: (§2)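 Visual 0–9 injury scores versus control plants, covering stand, vigour, malformation, size, chlorosis and general appearance, taken four to five weeks post-spray and averaged over replicate tests. Plants were sprayed at roughly two weeks old and held on greenhouse benches.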

[5] = test system: SAGPY (Sagittaria pygmaea); assay: Flooded paddy, preemergence weed control; format: in vivo, L.; settings: rate 0.1250 kg/ha, rated 3-4 weeks after treatment, 0-9 rating scale
Summary of the method: (§3)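 Silt loam, sowing depth ≤0.5 cm; permanent flood 1.5–3 cm above soil; greenhouse culture after treatment. Readout: 0-9 visual scale (stand, vigor, malformation, size, chlorosis, appearance) vs control.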

ZEAMX (Corn, Field) [6] = assay: Preemergence herbicidal evaluation; format: in vivo, Zea mays, L.; settings: Rate 0.2500 kg/ha; preemergence; rated 4-5 weeks after treatment
ORYSAT (Rice, Tebonnet) [7] = assay: Preemergence herbicidal evaluation; format: in vivo, Oryza sativa, (L.) Tebonnet; settings: Rate 0.2500 kg/ha; preemergence; rated 4-5 weeks after treatment
ORYSAT (Rice, Tebonnet) [8] = assay: Postemergence herbicidal evaluation; format: in vivo, Oryza sativa, (L.) Tebonnet; settings: rate 0.0620 kg/ha
Summary of the method: as §2

[9] = test system: CHEAL (Chenopodium album); assay: Postemergence herbicidal evaluation; format: in vivo, L.; settings: rate 0.0620 kg/ha
Summary of the method: as §2

[10] = test system: CASOB (Cassia obtusifolia); assay: Postemergence herbicidal evaluation; format: in vivo, L.; settings: rate 0.0620 kg/ha
Summary of the method: as §2

[11] = test system: AMBEL (Ambrosia artemisifolia); assay: Postemergence herbicidal evaluation; format: in vivo, L.; settings: rate 0.0620 kg/ha
Summary of the method: as §2

[12] = test system: IPOHE (Ipomoea hederacea); assay: Postemergence herbicidal evaluation; format: in vivo, (L.) Jacq.; settings: rate 0.0620 kg/ha
Summary of the method: as §2

[13] = test system: IPOHE (Ipomoea hederacea); assay: Preemergence herbicidal evaluation; format: in vivo, (L.) Jacq.; settings: Rate 0.2500 kg/ha; preemergence; rated 4-5 weeks after treatment
SETVI (Setaria viridis) [14] = assay: Postemergence herbicidal evaluation; format: in vivo, (L.) Beau; settings: rate 0.0620 kg/ha
Summary of the method: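 Visual injury score (0-9: stand, vigor, malformation, size, chlorosis, overall appearance vs untreated control) taken four to five weeks post-spray. Two-week-old seedlings received about 0.0040 to 1.000 kg/ha active compound in acetone/water with 0.5% TWEEN 20.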

[15] = test system: ECHCG (Echinochloa crus-galli); assay: Postemergence herbicidal evaluation; format: in vivo, (L.) Beau; settings: rate 0.0620 kg/ha
Summary of the method: as §2

[16] = test system: ABUTH (Abutilon theophrasti); assay: Postemergence herbicidal evaluation; format: in vivo, Medic.; settings: rate 0.0620 kg/ha
Summary of the method: as §2

[17] = test system: CHEAL (Chenopodium album); assay: Preemergence herbicidal evaluation; format: in vivo, L.; settings: Rate 0.2500 kg/ha; preemergence; rated 4-5 weeks after treatment
Summary of the method: as §1

[18] = test system: CASOB (Cassia obtusifolia); assay: Preemergence herbicidal evaluation; format: in vivo, L.; settings: Rate 0.2500 kg/ha; preemergence; rated 4-5 weeks after treatment
Summary of the method: as §1

[19] = test system: AMBEL (Ambrosia artemisifolia); assay: Preemergence herbicidal evaluation; format: in vivo, L.; settings: Rate 0.2500 kg/ha; preemergence; rated 4-5 weeks after treatment
Summary of the method: as §1

[20] = test system: ECHORC (Echinochloa oryzoides); assay: Flooded paddy, preemergence weed control; format: in vivo, Echinochloa oryzoides (Ard.) Fritsch.; settings: rate 0.1250 kg/ha, rated 3-4 weeks after treatment, 0-9 rating scale
Summary of the method: as §3

[21] = test system: GLXMAW (Soybean, Williams); assay: Postemergence herbicidal evaluation; format: in vivo, Glycine max, (L.) Merr. cv Williams; settings: rate 0.0620 kg/ha
Summary of the method: as §2

GALAP (Galium aparine) [22] = assay: Preemergence herbicidal evaluation; format: in vivo; settings: Rate 0.2500 kg/ha; preemergence; rated 4-5 weeks after treatment
Summary of the method: as §1

[23] = test system: MOOVA (Monochoria vaginalis); assay: Flooded paddy, preemergence weed control; format: in vivo, Presl.; settings: rate 0.1250 kg/ha, rated 3-4 weeks after treatment, 0-9 rating scale
Summary of the method: as §3

CYPIR (Cyperus iria) = assay: Flooded paddy, preemergence weed control; format: in vivo; settings: rate 0.1250 kg/ha, rated 3-4 weeks after treatment, 0-9 rating scale
Summary of the method: as §3

[24] = test system: ABUTH (Abutilon theophrasti); assay: Preemergence herbicidal evaluation; format: in vivo, Medic.; settings: Rate 0.2500 kg/ha; preemergence; rated 4-5 weeks after treatment
ORYSAT (Rice, Tebonnet) [25] = assay: Flooded paddy, post-transplant rice tolerance; format: in vivo, Oryza sativa, (L.) Tebonnet; settings: flooded paddy, post-transplant rice; rate 0.1250 kg/ha; rated 3-4 weeks after treatment; 0-9 rating scale
Summary of the method: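 Seedlings aged ten days are transplanted in pairs into undrained pots of silt loam, which are then flooded to a depth of 1.5 to 3 cm. After herbicide application the pots are kept in a greenhouse with the flood maintained. Plants are rated 0-9 by visual comparison with controls.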

ZEAMX (Corn, Field) [26] = assay: Postemergence herbicidal evaluation; format: in vivo, Zea mays, L.; settings: rate 0.0620 kg/ha
Summary of the method: as §2

GALAP (Galium aparine) [27] = assay: Postemergence herbicidal evaluation; format: in vivo; settings: rate 0.0620 kg/ha
Summary of the method: as §2

[28] = test system: GLXMAW (Soybean, Williams); assay: Preemergence herbicidal evaluation; format: in vivo, Glycine max, (L.) Merr. cv Williams; settings: Rate 0.2500 kg/ha; preemergence; rated 4-5 weeks after treatment
[29] = test system: TRZAWR (Wheat, Winter, cv Riband); assay: Preemergence herbicidal evaluation; format: in vivo, Triticum aestivum; settings: Rate 0.2500 kg/ha; preemergence; rated 4-5 weeks after treatment
Summary of the method: as §1

C[C@@H]1O[C@@H]1c1nsc2ccc(-n3c(=O)cc(C(F)(F)F)n(C)c3=O)cc12 [Compound 13, 3-[3-[(1R,2S)-1,2-epoxypropyl]-1,2-benzisothiazol-5-yl]-1-methyl-6-(trifluoromethyl)uracil]
ECHCG preemergence herbicidal rating [1]: 9.0
SETVI preemergence herbicidal rating (SETVI (Setaria viridis) [2]): 9.0
herbicidal rating, CYPSE [3]: 6.5
Postemergence herbicidal rating, TRZAWR [4]: 3.0
herbicidal rating, SAGPY [5]: 4.0
ZEAMX preemergence herbicidal rating (ZEAMX (Corn, Field) [6]): 7.0
ORYSAT preemergence herbicidal rating (ORYSAT (Rice, Tebonnet) [7]): 7.5
Postemergence herbicidal rating, ORYSAT (ORYSAT (Rice, Tebonnet) [8]): 3.0
Postemergence herbicidal rating, CHEAL [9]: 6.0
Postemergence herbicidal rating, CASOB [10]: 5.0
Postemergence herbicidal rating, AMBEL [11]: 9.0
Postemergence herbicidal rating, IPOHE [12]: 7.0
IPOHE preemergence herbicidal rating [13]: 9.0
Postemergence herbicidal rating, SETVI (SETVI (Setaria viridis) [14]): 7.0
Postemergence herbicidal rating, ECHCG [15]: 3.0
Postemergence herbicidal rating, ABUTH [16]: 9.0
CHEAL preemergence herbicidal rating [17]: 9.0
CASOB preemergence herbicidal rating [18]: 9.0
AMBEL preemergence herbicidal rating [19]: 9.0
herbicidal rating, ECHORC [20]: 6.0
Postemergence herbicidal rating, GLXMAW [21]: 7.0
GALAP preemergence herbicidal rating (GALAP (Galium aparine) [22]): 9.0
herbicidal rating, MOOVA [23]: 9.0
herbicidal rating, CYPIR (CYPIR (Cyperus iria)): 8.0
ABUTH preemergence herbicidal rating [24]: 9.0
herbicidal rating, ORYSAT (rice tolerance) (ORYSAT (Rice, Tebonnet) [25]): 7.5
Postemergence herbicidal rating, ZEAMX (ZEAMX (Corn, Field) [26]): 5.0
Postemergence herbicidal rating, GALAP (GALAP (Galium aparine) [27]): 9.0
GLXMAW preemergence herbicidal rating [28]: 7.5
TRZAWR preemergence herbicidal rating [29]: 5.0

C[C@H]1O[C@@H]1c1nsc2ccc(-n3c(=O)cc(C(F)(F)F)n(C)c3=O)cc12 [Compound 14, 3-[3-[(1R,2R)-1,2-epoxypropyl]-1,2-benzisothiazol-5-yl]-1-methyl-6-(trifluoromethyl)uracil]
ECHCG preemergence herbicidal rating [1]: 9.0
SETVI preemergence herbicidal rating (SETVI (Setaria viridis) [2]): 9.0
herbicidal rating, CYPSE [3]: 8.0
Postemergence herbicidal rating, TRZAWR [4]: 6.5
herbicidal rating, SAGPY [5]: 9.0
ZEAMX preemergence herbicidal rating (ZEAMX (Corn, Field) [6]): 8.5
ORYSAT preemergence herbicidal rating (ORYSAT (Rice, Tebonnet) [7]): 9.0
Postemergence herbicidal rating, ORYSAT (ORYSAT (Rice, Tebonnet) [8]): 6.0
Postemergence herbicidal rating, CHEAL [9]: 8.0
Postemergence herbicidal rating, CASOB [10]: 2.0
Postemergence herbicidal rating, AMBEL [11]: 9.0
Postemergence herbicidal rating, IPOHE [12]: 9.0
IPOHE preemergence herbicidal rating [13]: 9.0
Postemergence herbicidal rating, SETVI (SETVI (Setaria viridis) [14]): 3.0
Postemergence herbicidal rating, ECHCG [15]: 2.0
Postemergence herbicidal rating, ABUTH [16]: 9.0
CHEAL preemergence herbicidal rating [17]: 9.0
CASOB preemergence herbicidal rating [18]: 9.0
AMBEL preemergence herbicidal rating [19]: 9.0
herbicidal rating, ECHORC [20]: 8.0
Postemergence herbicidal rating, GLXMAW [21]: 7.5
GALAP preemergence herbicidal rating (GALAP (Galium aparine) [22]): 9.0
herbicidal rating, MOOVA [23]: 9.0
herbicidal rating, CYPIR (CYPIR (Cyperus iria)): 9.0
ABUTH preemergence herbicidal rating [24]: 9.0
herbicidal rating, ORYSAT (rice tolerance) (ORYSAT (Rice, Tebonnet) [25]): 9.0
Postemergence herbicidal rating, ZEAMX (ZEAMX (Corn, Field) [26]): 6.0
Postemergence herbicidal rating, GALAP (GALAP (Galium aparine) [27]): 9.0
GLXMAW preemergence herbicidal rating [28]: 8.0
TRZAWR preemergence herbicidal rating [29]: 9.0
